Article PMC10648852, “Molecular drivers of resistance to sulbactam-durlobactam in contemporary clinical isolates of Acinetobacter baumannii” (Antimicrobial Agents and Chemotherapy, 2023)
Like-named read-outs stand apart in the source and are kept apart here.

Legend:
[1] = test system: isogenic A. baylyi ADP1 panel encoding wildtype or mutant PBP3; test: Broth microdilution MIC, isogenic A. baylyi panel (PBP3 variants with or without overexpressed β-lactamases); assay type: cell-based; details: for increase in MIC values in the presence of β-lactamase: wildtype PBP3 strain
Protocol: To understand the effect of PBP3 variants on whole cell activity in the absence of other resistance determinants, the MIC values of sulbactam, SUL-DUR and comparator β-lactams were measured against an isogenic A. baylyi panel engineered to contain individual strains in which the endogenous PBP3 was replaced with the variant of interest.
Each of the A. baylyi panel members were then transformed with plasmids that constitutively expressed five distinct, representative β-lactamases commonly found in Acinetobacter clinical isolates (TEM-1, ADC-30, OXA-23, OXA-24 or OXA-66) and evaluated for changes in antibiotic susceptibility. […] . […] .
The isogenic A. baylyi panel used for chromosomal expression of various PBP3 mutants with or without constitutive expression of various β-lactamases were constructed as part of this study. The A. baylyi ADP1 PBP3 ORF was cloned into pUC19 with a gentamicin cassette inserted downstream of the PBP3 ORF for selection purposes. Additionally, 500 bp of flanking homology to the ADP1 genome were inserted upstream of the PBP3 ORF and downstream of the gentamicin cassette. […] Linear DNA consisting of the 500 bp upstream-PBP3-Gent-500 bp downstream fragment was cloned out of the pUC19 plasmid by PCR and used for transformation of the ADP1 strain. The strain was grown at 30°C overnight in LB medium shaking at 250 rpm. Seventy microliters of the overnight ADP1 culture were combined with 1 mL of fresh LB and 200 ng of linear DNA fragment and incubated for 5 h at 30°C and shaking at 200 rpm. Various dilutions of each culture were plated on LB agar supplemented with 10 µg/mL of gentamicin to select for transformants with successful chromosomal integrations. Integrants were verified by Sanger sequencing using purified genomic DNA.
For the constitutive expression of various β-lactamases, ORFs of bla TEM-1, bla ADC-30, bla OXA-23, bla OXA-24, and bla OXA-66 were cloned by PCR from various clinical strains that encode these genes and inserted into the pWH1266 plasmid modified to encode a kanamycin cassette for selection. These plasmids along with an empty vector were used to transform each of the A. baylyi ADP1 strains engineered above that encode wild-type PBP3 or variants. Transformations were carried out as done above with selection on LB agar supplemented with 20 µg/mL of kanamycin.
(§1) Antimicrobial susceptibility testing was performed using broth microdilution following standardized methods established by the Clinical Laboratory Standards Institute (CLSI) ([35], [36]). Quality control testing was performed as specified by CLSI using A. baumannii NCTC 13304 ([35]). MIC values were interpreted using CLSI breakpoints for all antimicrobial agents except those for which CLSI breakpoints are not available ([35]). SUL-DUR was tested as twofold dilutions of sulbactam in combination with a fixed concentration of 4 µg/mL durlobactam ([35]).

[2] = test system: A. baumannii AB5075 and transposon mutants in efflux genes; test: Broth microdilution MIC, isogenic A. baumannii transposon mutants in efflux genes; assay type: cell-based; details: for In vitro activity (MIC): tested in duplicate; for MIC changes as compared to the parent strain: all tested efflux gene disruptions, AB5075
Protocol: (§2) To further assess the role of efflux in SUL-DUR activity against Acinetobacter spp., two panels of A. baumannii isogenic strains were tested. The first consisted of 7 members of an A. baumannii transposon library ([28]) with single gene disruptions in the adeABC, adeIJK, or adeT loci as compared to the parent strain, AB5075. […] This panel of strains consists of four different point mutants in AdeR and five different point mutants in AdeS, which result in the upregulation of AdeABC expression. In addition, this panel contains chromosomal deletions of adeL and adeN, which result in overexpression of AdeFGH and AdeIJK, respectively ([29]).
The parent and each isogenic mutant strain in both panels was measured for susceptibility to sulbactam, durlobactam, SUL-DUR, imipenem, and gentamicin. […].
(§3) The AB5075 parent strain as well as transposon interrupted AdeABC, AdeIJK, and AdeT were purchased from the Manoil laboratory at the University of Washington from their arrayed transposon mutant collection ([28]). The KAB1544 parent as well as efflux pump regulator mutants and deletions were constructed as previously described ([29]).
as §1

[3] = test system: A. baumannii KAB1544 and efflux overexpression mutants; test: Broth microdilution MIC, isogenic A. baumannii overexpression efflux mutants; assay type: cell-based; details: for MIC: Acinetobacter baumannii; for change in MIC values relative to the parent strain: most of the AdeR and AdeS mutants (AdeABC overexpression), KAB1544
Protocol: as §2
In contrast, sulbactam, SUL-DUR, and imipenem MIC values were unaffected by these mutants (Table 4).
as §3, §1

A. baumannii PBP3 S390T = test: Acylation rate constant (kinact/Ki), fluorescence anisotropy competition with BOCILLIN; details: variant data from McLeod et al. (2018)
A. baumannii PBP3 N392T = test: as above; details: for k inact/K i: average ± SD
A. baumannii PBP3 S395F = test: as above; details: variant data from McLeod et al. (2018)
[4] = test system: 5,032 ABC clinical isolates; details: 5,032 ABC clinical isolates 2016-2021; durlobactam fixed at 4 µg/mL in SUL-DUR; cited from earlier work
[5] = Acinetobacter baylyi, A. baylyi, PBP3 H370Y, overexpressed ADC-30
[6] = Acinetobacter baylyi, A. baylyi, PBP3 H370Y, overexpressed OXA-23
[7] = Acinetobacter baylyi, A. baylyi, PBP3 H370Y, overexpressed OXA-24
[8] = Acinetobacter baylyi, A. baylyi, PBP3 H370Y, overexpressed OXA-66
[9] = Acinetobacter baylyi, A. baylyi, PBP3 H370Y, overexpressed TEM-1
[10] = Acinetobacter baylyi, A. baylyi, PBP3 H370Y, β-lactamase None (empty vector)
[11] = Acinetobacter baylyi, A. baylyi, PBP3 Wildtype, overexpressed ADC-30, read-out: MIC
[12] = Acinetobacter baylyi, A. baylyi, PBP3 Wildtype, overexpressed OXA-23, read-out: MIC
[13] = Acinetobacter baylyi, A. baylyi, PBP3 Wildtype, overexpressed OXA-24, read-out: MIC
[14] = Acinetobacter baylyi, A. baylyi, PBP3 Wildtype, overexpressed OXA-66, read-out: MIC
[15] = Acinetobacter baylyi, A. baylyi, PBP3 Wildtype, overexpressed TEM-1, read-out: MIC
[16] = Acinetobacter baylyi, A. baylyi, PBP3 Wildtype, β-lactamase None (empty vector), read-out: MIC
[17] = AdeR A91V, AdeABC overexpressed, read-out: MIC
[18] = AdeR D20N, AdeABC overexpressed, read-out: MIC
[19] = AdeR E219A, AdeABC overexpressed, read-out: MIC
[20] = AdeR P116L, AdeABC overexpressed, read-out: MIC
[21] = AdeS A94V, AdeABC overexpressed, read-out: MIC
[22] = AdeS G30D, AdeABC overexpressed, read-out: MIC
[23] = AdeS G103D, AdeABC overexpressed, read-out: MIC
[24] = AdeS R152K, AdeABC overexpressed, read-out: MIC
[25] = AdeS T153M, AdeABC overexpressed, read-out: MIC
[26] = Parent (KAB1544), no efflux pump overexpressed, read-out: MIC

Compound: C[C@@H](O)[C@H]1C(=O)N2C(C(=O)O)=C(SCCN=CN)C[C@H]12 [imipenem]
- MIC [1, 5]: 0.03 µg/mL
- MIC [1, 6]: 4 µg/mL
- MIC [1, 7]: > 8 µg/mL
- MIC [1, 8]: 0.06 µg/mL
- MIC [1, 9]: 0.03 µg/mL
- MIC [1, 10]: 0.03 µg/mL
- MIC [1, 11]: 0.13 µg/mL
- MIC [1, 12]: 8 µg/mL
- MIC [1, 13]: 8 µg/mL
- MIC [1, 14]: 0.13 µg/mL
- MIC [1, 15]: 0.03 µg/mL
- MIC [1, 16]: 0.03 µg/mL
- increase in MIC values in the presence of β-lactamase ([1]; ADC-30, OXA-23, OXA-24 and OXA-66): ≥ 4 fold
- In vitro activity (MIC) ([2]; Parent (AB5075)): 16 µg/mL
- In vitro activity (MIC) ([2]; adeA::tn in AB5075): 8 µg/mL
- In vitro activity (MIC) ([2]; adeB::tn in AB5075): 8 µg/mL
- In vitro activity (MIC) ([2]; adeC::tn in AB5075): 16 µg/mL
- In vitro activity (MIC) ([2]; adeI::tn in AB5075): 16 µg/mL
- In vitro activity (MIC) ([2]; adeJ::tn in AB5075): 16 µg/mL
- In vitro activity (MIC) ([2]; adeK::tn in AB5075): 16 µg/mL
- In vitro activity (MIC) ([2]; adeT::tn in AB5075): 8 µg/mL
- MIC changes as compared to the parent strain [2]: ≤ 2 fold
- MIC [3, 17]: 0.5 µg/mL
- MIC [3, 18]: 0.5 µg/mL
- MIC [3, 19]: 0.25 µg/mL
- MIC [3, 20]: 0.5 µg/mL
- MIC [3, 21]: 0.5 µg/mL
- MIC [3, 22]: 0.5 µg/mL
- MIC [3, 23]: 0.25 µg/mL
- MIC [3, 24]: 0.5 µg/mL
- MIC [3, 25]: 0.5 µg/mL
- MIC [3, 26]: 0.25 µg/mL
- MIC ([3]; ΔadeL, AdeFGH overexpressed): 0.25 µg/mL
- MIC ([3]; ΔadeN, AdeIJK overexpressed): 0.25 µg/mL
- change in MIC values relative to the parent strain [3]: unaffected
- % WT (A. baumannii PBP3 S390T): 120%
- % WT (A. baumannii PBP3 N392T): 175.6%
- k inact/K i (A. baumannii PBP3 N392T): 790 ± 50 ([2]) M^-1s^-1
- % WT (A. baumannii PBP3 S395F): 2.0%

Compound: CC1(C)[C@H](C(=O)O)N2C(=O)C[C@H]2S1(=O)=O [sulbactam]
- MIC [1, 5]: 2 µg/mL
- MIC [1, 6]: > 64 µg/mL
- MIC [1, 7]: > 64 µg/mL
- MIC [1, 8]: 4 µg/mL
- MIC [1, 9]: 4 µg/mL
- MIC [1, 10]: 8 µg/mL
- MIC [1, 11]: 2 µg/mL
- MIC [1, 12]: > 64 µg/mL
- MIC [1, 13]: 16 µg/mL
- MIC [1, 14]: 8 µg/mL
- MIC [1, 15]: 16 µg/mL
- MIC [1, 16]: 4 µg/mL
- increase in MIC values in the presence of β-lactamase ([1]; TEM-1, OXA-23 and OXA-24): ≥ 4 fold
- MIC ([1]; {}): >64 µg/mL
- In vitro activity (MIC) ([2]; Parent (AB5075)): 64 µg/mL
- In vitro activity (MIC) ([2]; adeA::tn in AB5075): 32 µg/mL
- In vitro activity (MIC) ([2]; adeB::tn in AB5075): 32 µg/mL
- In vitro activity (MIC) ([2]; adeC::tn in AB5075): 64 µg/mL
- In vitro activity (MIC) ([2]; adeI::tn in AB5075): 32 µg/mL
- In vitro activity (MIC) ([2]; adeJ::tn in AB5075): 64 µg/mL
- In vitro activity (MIC) ([2]; adeK::tn in AB5075): 32 µg/mL
- In vitro activity (MIC) ([2]; adeT::tn in AB5075): 64 µg/mL
- MIC changes as compared to the parent strain [2]: ≤ 2 fold
- MIC [3, 17]: 1 µg/mL
- MIC [3, 18]: 1 µg/mL
- MIC [3, 19]: 2 µg/mL
- MIC [3, 20]: 1 µg/mL
- MIC [3, 21]: 1 µg/mL
- MIC [3, 22]: 1 µg/mL
- MIC [3, 23]: 2 µg/mL
- MIC [3, 24]: 1 µg/mL
- MIC [3, 25]: 1 µg/mL
- MIC [3, 26]: 2 µg/mL
- MIC ([3]; ΔadeL, AdeFGH overexpressed): 1 µg/mL
- MIC ([3]; ΔadeN, AdeIJK overexpressed): 2 µg/mL
- change in MIC values relative to the parent strain [3]: unaffected
- MIC50 [4]: 8 µg/mL
- MIC90 [4]: 32 µg/mL
- % WT (A. baumannii PBP3 S390T): 0.2%
- % WT (A. baumannii PBP3 N392T): ~ 120%
- k inact/K i (A. baumannii PBP3 N392T): 18 ± 1 ([2]) M^-1s^-1
- % WT (A. baumannii PBP3 N392T; listed as Sulbactam): 120%
- % WT (A. baumannii PBP3 S395F): 4.2%

Compound: C[C@@H](O)[C@H]1C(=O)N2C(C(=O)O)=C(S[C@@H]3CN[C@H](C(=O)N(C)C)C3)[C@H](C)[C@H]12 [meropenem]
- MIC [1, 5]: 0.06 µg/mL
- MIC [1, 6]: 8 µg/mL
- MIC [1, 7]: > 8 µg/mL
- MIC [1, 8]: 0.5 µg/mL
- MIC [1, 9]: 0.06 µg/mL
- MIC [1, 10]: 0.06 µg/mL
- MIC [1, 11]: 0.13 µg/mL
- MIC [1, 12]: 8 µg/mL
- MIC [1, 13]: > 8 µg/mL
- MIC [1, 14]: 1 µg/mL
- MIC [1, 15]: 0.13 µg/mL
- MIC [1, 16]: 0.06 µg/mL
- increase in MIC values in the presence of β-lactamase ([1]; OXA-23, OXA-24 and OXA-66): ≥ 4 fold
- % WT (A. baumannii PBP3 N392T): 164%
- k inact/K i (A. baumannii PBP3 N392T): 8,200 ± 200 ([2]) M^-1s^-1
- % WT (A. baumannii PBP3 S395F): 30%
